Experimental data as given in patent US20240360177A1, “PEPTIDES WITH ANTIMICROBIAL ACTIVITIES” (priority 2021, published 2024).
Converted amounts (≈) assume the structure as drawn. Non-standard residues stand in square brackets, D forms with d. Residues, ends and D or L forms follow the SMILES beside them. Ava = NCCCCC(=O)O

Legend:
C. neoformans = settings: 72 h
C. auris = settings: 24 h
C. gattii = settings: 72 h
C. dubliniensis = settings: 24 h
C. parapsilosis = settings: 24 h
C. krusei = settings: 24 h
Scedosporium spp. = settings: 72 h
C. tropicalis = settings: 24 h
C. albicans = settings: 24 h
C. glabrata = settings: 24 h

MIC C. neoformans (C. neoformans) [µg/mL]	MIC C. auris (C. auris) [µg/mL]	MIC C. gattii (C. gattii) [µg/mL]	MIC C. dubliniensis (C. dubliniensis) [µg/mL]	MIC Range Lomentospora prolificans (Lomentospora prolificans) [µg/mL]	MIC C. parapsilosis (C. parapsilosis) [µg/mL]	MIC C. krusei (C. krusei) [µg/mL]	MIC Range Scedosporium spp. (Scedosporium spp.) [µg/mL]	MIC C. tropicalis (C. tropicalis) [µg/mL]	MIC C. albicans (C. albicans) [µg/mL]	MIC C. glabrata (C. glabrata) [µg/mL]	SMILES
16 (≈ 8.55 µM)	>32	4 (≈ 2.14 µM)	2 (≈ 1.07 µM)	32 (≈ 17.1 µM)	0.25 (≈ 0.134 µM)	2 (≈ 1.07 µM)	16 (≈ 8.55 µM)	0.5 (≈ 0.267 µM)	2 (≈ 1.07 µM)	1 (≈ 0.535 µM)	N=C(N)NCCC[C@@H](N)C(=O)N[C@@H](CCCNC(=N)N)C(=O)N1CCC[C@H]1C(=O)N[C@H](CCCNC(=N)N)C(=O)N[C@@H](CCCNC(=N)N)C(=O)N[C@H](CCCNC(=N)N)C(=O)N1CCC[C@H]1C(=O)N[C@H](CCCNC(=N)N)C(=O)N[C@@H](CCCNC(=N)N)C(=O)N1CCC[C@H]1C(=O)N[C@H](CCCNC(=N)N)C(=O)N[C@@H](CCCNC(=N)N)C(=O)N[C@H](CCCNC(=N)N)C(N)=O [SEQ ID NO: 72, rR-P-rRr-P-rR-P-rRr-NH2] (H-[dR]RP[dR]R[dR]P[dR]RP[dR]R[dR]-NH2)
32 (≈ 17.1 µM)	>32	4 (≈ 2.13 µM)	2 (≈ 1.07 µM)	>32	0.5 (≈ 0.266 µM)	16 (≈ 8.53 µM)	16 to 32	2 (≈ 1.07 µM)	4 (≈ 2.13 µM)	8 (≈ 4.26 µM)	N=C(N)NCCC[C@@H](N)C(=O)N[C@@H](CCCNC(=N)N)C(=O)NCCCCC(=O)N[C@H](CCCNC(=N)N)C(=O)N[C@@H](CCCNC(=N)N)C(=O)N[C@H](CCCNC(=N)N)C(=O)NCCCCC(=O)N[C@H](CCCNC(=N)N)C(=O)N[C@@H](CCCNC(=N)N)C(=O)NCCCCC(=O)N[C@H](CCCNC(=N)N)C(=O)N[C@@H](CCCNC(=N)N)C(=O)N[C@H](CCCNC(=N)N)C(N)=O [SEQ ID NO: 25, rR-(Ava)-rRr-(Ava)-rR-(Ava)-rRr-NH2] (H-[dR]R[Ava][dR]R[dR][Ava][dR]R[Ava][dR]R[dR]-NH2)
8 (≈ 4.28 µM)	>32	2 (≈ 1.07 µM)	0.5 (≈ 0.267 µM)	>32	0.5 (≈ 0.267 µM)	2 (≈ 1.07 µM)	8 (≈ 4.28 µM)	1 (≈ 0.535 µM)	0.25 (≈ 0.134 µM)	2 (≈ 1.07 µM)	N=C(N)NCCC[C@@H](N)C(=O)N[C@@H](CCCNC(=N)N)C(=O)N[C@H](CCCNC(=N)N)C(=O)N1CCC[C@H]1C(=O)N[C@H](CCCNC(=N)N)C(=O)N[C@@H](CCCNC(=N)N)C(=O)N1CCC[C@H]1C(=O)N[C@H](CCCNC(=N)N)C(=O)N[C@@H](CCCNC(=N)N)C(=O)N[C@H](CCCNC(=N)N)C(=O)N1CCC[C@H]1C(=O)N[C@H](CCCNC(=N)N)C(=O)N[C@@H](CCCNC(=N)N)C(N)=O [SEQ ID NO: 68, rRr-P-rR-P-rRr-P-rR-NH2] (H-[dR]R[dR]P[dR]RP[dR]R[dR]P[dR]R-NH2)
8 (≈ 4.28 µM)	>32	2 (≈ 1.07 µM)	2 (≈ 1.07 µM)	32 (≈ 17.1 µM)	0.5 (≈ 0.267 µM)	2 (≈ 1.07 µM)	8 to 16	1 (≈ 0.535 µM)	1 (≈ 0.535 µM)	1 (≈ 0.535 µM)	N=C(N)NCCC[C@@H](N)C(=O)N[C@@H](CCCNC(=N)N)C(=O)N1CCC[C@H]1C(=O)N[C@H](CCCNC(=N)N)C(=O)N[C@@H](CCCNC(=N)N)C(=O)N1CCC[C@H]1C(=O)N[C@H](CCCNC(=N)N)C(=O)N[C@@H](CCCNC(=N)N)C(=O)N[C@H](CCCNC(=N)N)C(=O)N1CCC[C@H]1C(=O)N[C@H](CCCNC(=N)N)C(=O)N[C@@H](CCCNC(=N)N)C(=O)N[C@H](CCCNC(=N)N)C(N)=O [SEQ ID NO: 73, rR-P-rR-P-rRr-P-rRr-NH2] (H-[dR]RP[dR]RP[dR]R[dR]P[dR]R[dR]-NH2)
16 (≈ 8.53 µM)	>32	4 (≈ 2.13 µM)	1 (≈ 0.533 µM)	>32	0.25 (≈ 0.133 µM)	8 (≈ 4.26 µM)	8 to 32	1 (≈ 0.533 µM)	2 (≈ 1.07 µM)	8 (≈ 4.26 µM)	N=C(N)NCCC[C@@H](N)C(=O)N[C@@H](CCCNC(=N)N)C(=O)N[C@H](CCCNC(=N)N)C(=O)NCCCCC(=O)N[C@H](CCCNC(=N)N)C(=O)N[C@@H](CCCNC(=N)N)C(=O)NCCCCC(=O)N[C@H](CCCNC(=N)N)C(=O)N[C@@H](CCCNC(=N)N)C(=O)N[C@H](CCCNC(=N)N)C(=O)NCCCCC(=O)N[C@H](CCCNC(=N)N)C(=O)N[C@@H](CCCNC(=N)N)C(N)=O [SEQ ID NO: 24, rRr-(Ava)-rR-(Ava)-rRr-(Ava)-rR-NH2] (H-[dR]R[dR][Ava][dR]R[Ava][dR]R[dR][Ava][dR]R-NH2)
8 (≈ 4.26 µM)	>32	2 (≈ 1.07 µM)	1 (≈ 0.533 µM)	32 (≈ 17.1 µM)	0.25 (≈ 0.133 µM)	8 (≈ 4.26 µM)	8 to 16	1 (≈ 0.533 µM)	2 (≈ 1.07 µM)	8 (≈ 4.26 µM)	N=C(N)NCCC[C@@H](N)C(=O)N[C@@H](CCCNC(=N)N)C(=O)N[C@H](CCCNC(=N)N)C(=O)NCCCCC(=O)N[C@H](CCCNC(=N)N)C(=O)N[C@@H](CCCNC(=N)N)C(=O)N[C@H](CCCNC(=N)N)C(=O)NCCCCC(=O)N[C@H](CCCNC(=N)N)C(=O)N[C@@H](CCCNC(=N)N)C(=O)NCCCCC(=O)N[C@H](CCCNC(=N)N)C(=O)N[C@@H](CCCNC(=N)N)C(N)=O [SEQ ID NO: 27, rRr-(Ava)-rRr-(Ava)-rR-(Ava)-rR-NH2] (H-[dR]R[dR][Ava][dR]R[dR][Ava][dR]R[Ava][dR]R-NH2)
8 (≈ 4.26 µM)	>32	2 (≈ 1.07 µM)	1 (≈ 0.533 µM)	>32	0.25 (≈ 0.133 µM)	4 (≈ 2.13 µM)	16 to 32	1 (≈ 0.533 µM)	2 (≈ 1.07 µM)	4 (≈ 2.13 µM)	N=C(N)NCCC[C@@H](N)C(=O)N[C@@H](CCCNC(=N)N)C(=O)NCCCCC(=O)N[C@H](CCCNC(=N)N)C(=O)N[C@@H](CCCNC(=N)N)C(=O)N[C@H](CCCNC(=N)N)C(=O)NCCCCC(=O)N[C@H](CCCNC(=N)N)C(=O)N[C@@H](CCCNC(=N)N)C(=O)N[C@H](CCCNC(=N)N)C(=O)NCCCCC(=O)N[C@H](CCCNC(=N)N)C(=O)N[C@@H](CCCNC(=N)N)C(N)=O [SEQ ID NO: 23, rR-(Ava)-rRr-(Ava)-rRr-(Ava)-rR-NH2] (H-[dR]R[Ava][dR]R[dR][Ava][dR]R[dR][Ava][dR]R-NH2)
